Measured values from the supplement of paper PMC10307832.

Key:
Assay in all cases: relative viability (nuclei count vs DMSO), 5 days (fraction); higher = more cells survive
[1] = compound: Cn1nnc2c(C(N)=O)ncn2c1=O [Temozolomide] + CCNC(=O)c1noc(-c2cc(C(C)C)c(O)cc2O)c1-c1ccc(CN2CCOCC2)cc1 [Luminespib] (partner 0.01 µM)
Method in brief: (§1)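 Lung cancer cell lines were pin-tool dosed in 1536-well plates on the day after seeding, with either a lone drug or a fixed anchor-drug dose plus five library-drug doses (not always all listed) in √10 steps. Nuclei were counted on 4× images after 5 days. Relative viability is the ratio of treated-well to vehicle-well nuclei counts, with each value a median of duplicate plates.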

AZD5582 + OSI-027 = compound: C[C@@H](C(=O)N[C@@H](C1CCCCC1)C(=O)N2CCC[C@H]2C(=O)N[C@@H]3[C@@H](CC4=CC=CC=C34)OCC#CC#CCO[C@@H]5CC6=CC=CC=C6[C@@H]5NC(=O)[C@@H]7CCCN7C(=O)[C@H](C8CCCCC8)NC(=O)[C@H](C)NC)NC [AZD5582] + COc1cccc2cc(-c3nc([C@H]4CC[C@H](C(=O)O)CC4)n4ncnc(N)c34)[nH]c12 [OSI-027] (partner 0.5 µM)
Method in brief: as §1

AZD5582 + Linsitinib = compound: C[C@@H](C(=O)N[C@@H](C1CCCCC1)C(=O)N2CCC[C@H]2C(=O)N[C@@H]3[C@@H](CC4=CC=CC=C34)OCC#CC#CCO[C@@H]5CC6=CC=CC=C6[C@@H]5NC(=O)[C@@H]7CCCN7C(=O)[C@H](C8CCCCC8)NC(=O)[C@H](C)NC)NC [AZD5582] + C[C@]1(O)C[C@@H](c2nc(-c3ccc4ccc(-c5ccccc5)nc4c3)c3c(N)nccn32)C1 [Linsitinib] (partner 1 µM)
Method in brief: as §1

AZD5582 + Phenformin = compound: C[C@@H](C(=O)N[C@@H](C1CCCCC1)C(=O)N2CCC[C@H]2C(=O)N[C@@H]3[C@@H](CC4=CC=CC=C34)OCC#CC#CCO[C@@H]5CC6=CC=CC=C6[C@@H]5NC(=O)[C@@H]7CCCN7C(=O)[C@H](C8CCCCC8)NC(=O)[C@H](C)NC)NC [AZD5582] + N=C(N)NC(=N)NCCc1ccccc1 [Phenformin] (partner 250 µM)
Method in brief: as §1

Cell Line | relative viability ([1]; first compound 0.2 µM) | relative viability ([1]; first compound 0.6325 µM) | relative viability ([1]; first compound 2 µM) | relative viability ([1]; first compound 6.325 µM) | relative viability ([1]; first compound 20 µM) | relative viability (AZD5582 + OSI-027; first compound 0.001581 µM) | relative viability (AZD5582 + OSI-027; first compound 0.005 µM) | relative viability (AZD5582 + OSI-027; first compound 0.01581 µM) | relative viability (AZD5582 + OSI-027; first compound 0.05 µM) | relative viability (AZD5582 + Linsitinib; first compound 0.001581 µM) | relative viability (AZD5582 + Linsitinib; first compound 0.005 µM) | relative viability (AZD5582 + Linsitinib; first compound 0.01581 µM) | relative viability (AZD5582 + Linsitinib; first compound 0.05 µM) | relative viability (AZD5582 + Phenformin; first compound 0.001581 µM) | relative viability (AZD5582 + Phenformin; first compound 0.005 µM) | relative viability (AZD5582 + Phenformin; first compound 0.01581 µM) | relative viability (AZD5582 + Phenformin; first compound 0.05 µM)
NCI-H2347 | 0.417 | 0.414 | 0.608 | 0.488 | 0.322 | 0.335 | 0.388 | 0.364 | 0.456 | 0.914 | 1.08 | 0.972 | 0.952 | 0.356 | 0.352 | 0.38 | 0.239
NCI-H2405 | 0.67 | 0.77 | 0.817 | 0.513 | 0.751 | 0.651 | 0.647 | 0.485 | 0.565 | 0.954 | 0.989 | – | 1 | 0.375 | 0.469 | 0.327 | 0.473
NCI-H3122 | 0.0795 | 0.105 | 0.125 | 0.0851 | 0.0839 | 0.912 | 0.891 | 1.02 | 0.147 | 1.02 | 1.03 | 0.967 | 0.313 | 0.362 | 0.376 | 0.354 | 0.19
PC-3 [JPC-3] | 0.63 | 0.739 | 0.776 | 0.659 | 0.421 | 0.633 | 0.596 | 0.635 | 0.504 | 0.933 | 0.944 | 1.04 | 0.691 | 0.465 | 0.441 | 0.47 | 0.381
PC-14 | 0.143 | 0.151 | 0.167 | 0.244 | 0.144 | 0.643 | 1.06 | 0.703 | 0.74 | 0.895 | 1.02 | 0.902 | 0.958 | 0.556 | 0.5 | 0.353 | 0.511
